One data set concerns rgRSV224 virus. In words: microbe, parasite or virus in culture. Format: cell-based. The conditions noted are these: human respiratory syncytial virus, 72 h; rgRSV224 virus (MOI=1), HeLa cells, GFP expression three days post-virus exposure; averaged data of several repeat experiments; read-out: RSV HELA EC50.
A further data set can be described thus: in vitro. The conditions noted are these: human.

Take `C[C@@H]1c2ccccc2CCN1C(=O)c1cc(C2CC2)c2nc(-c3ccc(C4C[C@@H]4C(=O)O)cc3F)cn2c1` (relative stereo) [Compound 6, Trans 2-(4-{8-Cyclopropyl-6-[(1R)-1-methyl-1,2,3,4-tetrahydroisoquinoline-2-carbonyl]imidazo[1,2-a]pyridin-2-yl}-3-fluorophenyl)cyclopropane-1-carboxylic acid]: the EC50 (as a rule, the concentration giving half of the maximal effect) in the data set with rgRSV224 virus came to 103 nM. In addition, the CC50 at 3 days in “in vitro” is 56.2 µM. Turning to `C[C@@H]1c2ccccc2CCN1C(=O)c1cc(C2CC2)c2nc(-c3ccc(C4C[C@@H]4C(N)=O)cc3F)cn2c1` (relative stereo) [Compound 7, Trans 2-(4-{8-Cyclopropyl-6-[(1R)-1-methyl-1,2,3,4-tetrahydroisoquinoline-2-carbonyl]imidazo[1,2-a]pyridin-2-yl}-3-fluorophenyl)cyclopropane-1-carboxamide], in the data set on rgRSV224 virus, the EC50 stood at 184 nM. The molecule further gave a CC50 at 3 days in the data set “in vitro” of 65.4 µM.

Turning to `C[C@@H]1c2ccccc2CCN1C(=O)c1cc(C2CC2)c2nc(-c3ccc(C4C[C@@H]4C(=O)NS(C)(=O)=O)cc3F)cn2c1` (relative stereo) [Compound 8, Trans 2-(4-{8-Cyclopropyl-6-[(1R)-1-methyl-1,2,3,4-tetrahydroisoquinoline-2-carbonyl]imidazo[1,2-a]pyridin-2-yl}-3-fluorophenyl)-N-methanesulfonylcyclopropane-1-carboxamide], in the data set on rgRSV224 virus, the concentration giving a half-maximal response (EC50) came to 793 nM. The same molecule displayed a CC50 at 3 days in the data set “in vitro” of 69.1 µM. In the case of `C[C@@H]1c2ccsc2CCN1C(=O)c1cc(C2CC2)c2nc(-c3ccc(N4CC[C@H](C(N)=O)C4)cc3F)cn2c1` (single isomer, unassigned) [Compound 13, (3S)-1-(4-{8-Cyclopropyl-6-[(4*R)-4-methyl-4,5,6,7-tetrahydro-thieno[3,2-c]pyridine-5-carbonyl]imidazo[1,2-a]pyridin-2-yl}-3-fluorophenyl)pyrrolidine-3-carboxamide], the EC50 with rgRSV224 virus turned out to be 37 nM. In “in vitro”, the CC50 at 3 days was 77.1 µM. As to `CNC(=O)[C@H]1CCN(c2ccc(-c3cn4cc(C(=O)N5CCc6sccc6[C@H]5C)cc(C5CC5)c4n3)c(F)c2)C1` (single isomer, unassigned) [Compound 14, (3S)-1-(4-{8-Cyclopropyl-6-[(4*R)-4-methyl-4,5,6,7-tetrahydro-thieno[3,2-c]pyridine-5-carbonyl]imidazo[1,2-a]pyridin-2-yl}-3-fluorophenyl)-N-methylpyrrolidine-3-carboxamide], the EC50 in the data set with rgRSV224 virus stood at 84 nM. In the data set “in vitro”, this molecule came in with a CC50 at 3 days of more than 100 µM.

As for `C[C@@H]1c2ccsc2CCN1C(=O)c1cc(-c2cccnc2)c2nc(-c3ccc(N4CC[C@H](C(N)=O)C4)cc3F)cn2c1` (single isomer, unassigned) [Compound 18, (3S)-1-(3-Fluoro-4-{6-[(4*R)-4-methyl-4,5,6,7-tetrahydro-thieno[3,2-c]pyridine-5-carbonyl]-8-(pyridin-3-yl)imidazo[1,2-a]pyridin-2-yl}phenyl)pyrrolidine-3-carboxamide], the EC50 with rgRSV224 virus is 108 nM. Also, in “in vitro”, the CC50 at 3 days was 21.7 µM. `C[C@@H]1c2ccccc2CCN1C(=O)c1cc(C2CC2)c2nc(-c3ccc(NC(=O)N4CC[C@@H](O)C4)cc3F)cn2n1` [Compound 37, (R)-N-(4-(8-cyclopropyl-6-((R)-1-methyl-1,2,3,4-tetrahydroisoquinoline-2-carbonyl)imidazo[1,2-b]pyridazin-2-yl)-3-fluorophenyl)-3-hydroxypyrrolidine-1-carboxamide] displayed a CC50 at 3 days in the data set “in vitro” of 32.2 µM. In “in vitro”, `CCc1cc(C(=O)N2CCc3ccccc3[C@H]2C)nn2cc(-c3ccc(NC(=O)N4CC[C@@H](O)C4)cc3F)nc12` [Compound 39, (R)-N-(4-(8-ethyl-6-((R)-1-methyl-1,2,3,4-tetrahydroisoquinoline-2-carbonyl)imidazo[1,2-b]pyridazin-2-yl)-3-fluorophenyl)-3-hydroxypyrrolidine-1-carboxamide] returned a CC50 at 3 days of 29.3 µM.

The values are drawn from US20220033396A1, “FURTHER HETEROAROMATIC COMPOUNDS HAVING ACTIVITY AGAINST RSV” (priority 2018, published 2022).
